Data taken from patent US6914045B2, “Glycopeptide antibiotics” (Wyeth Holdings Corporation, priority 2001, dated 2005).
In brackets after ≈: the same amount, converted by molar mass.

Experiments:
[1] = system: Staphylococcus aureus-SMITH (GC 4543); experiment: acute lethal infection in mice; assay type: in vivo; settings: acute lethal infection, female CD-1 mice, intraperitoneal challenge, intravenous 30 min. after infection, 7 day survival
Summary of the method: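 Female CD-1 mice (20±2 g) got an intraperitoneal bacterial challenge lethal to untreated controls within 24–48 hr. Compound was dosed intravenously 30 min after infection, five mice per dose. ED50 was calculated from 7-day survival pooled across 3 tests.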

Enterococcus sp. = experiment: in vitro antibacterial evaluation, MIC by broth dilution; assay type: cell-based; settings: broth dilution, 18 hours at 35° C.; for MIC Enterococcus faecalis (ATCC 29212): strain ATCC 29212; for MIC Enterococcus faecalis (GC 2242): strain GC 2242; for MIC Enterococcus faecium (GC 2243): strain GC 2243; for MIC Enterococcus faecalis (GC 2691): strain GC 2691; for MIC Enterococcus faecalis (GC 3059): strain GC 3059; for MIC Enterococcus faecalis (GC 4552): strain GC 4552; for MIC Enterococcus faecalis (GC 4553): strain GC 4553; for MIC Enterococcus faecalis (GC 4554): strain GC 4554; for MIC Enterococcus faecium (GC 4556): strain GC 4556; for MIC Enterococcus faecium (GC 4557): strain GC 4557; for MIC Enterococcus avium (GC 4558): strain GC 4558; for MIC Enterococcus faecalis (GC 6189): strain GC 6189
Summary of the method: (§1)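 MIC, the lowest antibiotic concentration preventing growth, was read across 64-0.06 μg/mL with 5×10^5 CFU/mL inoculum. Method followed NCCLS M7-A2 broth dilution using Mueller-Hinton II; Gram-positive strains covered recent methicillin-, penicillin- and/or vancomycin-resistant clinical isolates.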

Streptococcus sp. = experiment: as above; assay type: cell-based; settings: broth dilution, 18 hours at 35° C.; for MIC Streptococcus pneumoniae (ATCC 6301): strain ATCC 6301; for MIC Streptococcus pneumoniae (GC 1894): strain GC 1894; for MIC Streptococcus pyogenes (GC 4563): strain GC 4563; for MIC Streptococcus agalactiae (GC 4564): strain GC 4564; for MIC Streptococcus pneumoniae (GC 4565): strain GC 4565
Summary of the method: as §1

Escherichia coli = experiment: as above; assay type: cell-based
Summary of the method: as §1

Staphylococcus sp. = experiment: as above; assay type: cell-based; settings: broth dilution, 18 hours at 35° C.; for MIC Staphylococcus aureus (GC 1131): strain GC 1131
Summary of the method: as §1

Cc1ccc(Oc2ccc(C3OCC4OC(OC5C(CO)OC(Oc6ccc(CC7NC(=O)C(C(C)c8ccccc8)NC(=O)CNC(=O)C(CO)NC(=O)C(C(O)C8CNC(=N)N8C8OC(CO)C(O)C(O)C8O)NC(=O)C(C(O)C8CNC(=N)N8)NC7=O)cc6)C(O)C5O)C(O)C(O)C4O3)cc2)cc1 (stereo not drawn) [Example 174, Cyclo[glycyl-β-methylphenylalanyl-O-[4-O-[4,6-O-[4-(4-methylphenoxy)benzylidene]hexopyranosyl]hexopyranosyl]tyrosyl-3-(2-iminoimidazolidin-4-yl)seryl-3-(3-hexopyranosyl-2-iminoimidazolidin-4-yl)serylseryl]]
median effective dose (ED50), Staphylococcus aureus-SMITH (GC 4543) [1]: 0.08 mg/kg | MIC Enterococcus faecalis (ATCC 29212) (Enterococcus sp.; inoculum 5×10^5 CFU/mL): 2 µg/mL (≈ 1.34 µM) | MIC Enterococcus faecalis (GC 2242) (Enterococcus sp.; inoculum 5×10^5 CFU/mL): 2 µg/mL (≈ 1.34 µM) | MIC Enterococcus faecium (GC 2243) (Enterococcus sp.; inoculum 5×10^5 CFU/mL): 1 µg/mL (≈ 0.671 µM) | MIC Enterococcus faecalis (GC 2691) (Enterococcus sp.; inoculum 5×10^5 CFU/mL): 2 µg/mL (≈ 1.34 µM) | MIC Enterococcus faecalis (GC 3059) (Enterococcus sp.; inoculum 5×10^5 CFU/mL): 2 µg/mL (≈ 1.34 µM) | MIC Enterococcus faecalis (GC 4552) (Enterococcus sp.; inoculum 5×10^5 CFU/mL): 1 µg/mL (≈ 0.671 µM) | MIC Enterococcus faecalis (GC 4553) (Enterococcus sp.; inoculum 5×10^5 CFU/mL): 1 µg/mL (≈ 0.671 µM) | MIC Enterococcus faecalis (GC 4554) (Enterococcus sp.; inoculum 5×10^5 CFU/mL): 1 µg/mL (≈ 0.671 µM) | MIC Enterococcus faecium (GC 4556) (Enterococcus sp.; inoculum 5×10^5 CFU/mL): 1 µg/mL (≈ 0.671 µM) | MIC Enterococcus faecium (GC 4557) (Enterococcus sp.; inoculum 5×10^5 CFU/mL): 2 µg/mL (≈ 1.34 µM) | MIC Enterococcus avium (GC 4558) (Enterococcus sp.; inoculum 5×10^5 CFU/mL): 2 µg/mL (≈ 1.34 µM) | MIC Enterococcus faecalis (GC 6189) (Enterococcus sp.; inoculum 5×10^5 CFU/mL): 2 µg/mL (≈ 1.34 µM) | MIC Enterococcus faecalis (ATCC 29212) (Enterococcus sp.): 2 µg/mL (≈ 1.34 µM) | MIC Enterococcus faecalis (GC 2242) (Enterococcus sp.): 2 µg/mL (≈ 1.34 µM) | MIC Enterococcus faecium (GC 2243) (Enterococcus sp.): 1 µg/mL (≈ 0.671 µM) | MIC Enterococcus faecalis (GC 2691) (Enterococcus sp.): 2 µg/mL (≈ 1.34 µM) | MIC Enterococcus faecalis (GC 3059) (Enterococcus sp.): 2 µg/mL (≈ 1.34 µM) | MIC Enterococcus faecalis (GC 4552) (Enterococcus sp.): 1 µg/mL (≈ 0.671 µM) | MIC Enterococcus faecalis (GC 4553) (Enterococcus sp.): 1 µg/mL (≈ 0.671 µM) | MIC Enterococcus faecalis (GC 4554) (Enterococcus sp.): 1 µg/mL (≈ 0.671 µM) | MIC Enterococcus faecium (GC 4556) (Enterococcus sp.): 1 µg/mL (≈ 0.671 µM) | MIC Enterococcus faecium (GC 4557) (Enterococcus sp.): 2 µg/mL (≈ 1.34 µM) | MIC Enterococcus avium (GC 4558) (Enterococcus sp.): 2 µg/mL (≈ 1.34 µM) | MIC Enterococcus faecalis (GC 6189) (Enterococcus sp.): 2 µg/mL (≈ 1.34 µM) | MIC Streptococcus pneumoniae (ATCC 6301) (Streptococcus sp.; inoculum 5×10^5 CFU/mL): <0.06 µg/mL | MIC Streptococcus pneumoniae (GC 1894) (Streptococcus sp.; inoculum 5×10^5 CFU/mL): <0.06 µg/mL | MIC Streptococcus pyogenes (GC 4563) (Streptococcus sp.; inoculum 5×10^5 CFU/mL): <0.06 µg/mL | MIC Streptococcus agalactiae (GC 4564) (Streptococcus sp.; inoculum 5×10^5 CFU/mL): <0.06 µg/mL | MIC Streptococcus pneumoniae (GC 4565) (Streptococcus sp.; inoculum 5×10^5 CFU/mL): <0.06 µg/mL | MIC Streptococcus pneumoniae (ATCC 6301) (Streptococcus sp.): <0.06 µg/mL | MIC Streptococcus pneumoniae (GC 1894) (Streptococcus sp.): <0.06 µg/mL | MIC Streptococcus pyogenes (GC 4563) (Streptococcus sp.): <0.06 µg/mL | MIC Streptococcus agalactiae (GC 4564) (Streptococcus sp.): <0.06 µg/mL | MIC Streptococcus pneumoniae (GC 4565) (Streptococcus sp.): <0.06 µg/mL | MIC Escherichia coli (ATCC 25922) (Escherichia coli; strain ATCC 25922, 18 hours at 35° C.): >64 µg/mL | MIC Escherichia coli (GC 4559) (Escherichia coli; strain GC 4559, 18 hours at 35° C.): >64 µg/mL | MIC Escherichia coli (GC 4560) (Escherichia coli; strain GC 4560, 18 hours at 35° C.): 4 µg/mL (≈ 2.69 µM) | MIC Staphylococcus aureus (GC 1131) (Staphylococcus sp.; inoculum 5×10^5 CFU/mL): 1 µg/mL (≈ 0.671 µM) | MIC Staphylococcus aureus (ATCC 29213) (Staphylococcus sp.; strain ATCC 29213): 2 µg/mL (≈ 1.34 µM) | MIC Staphylococcus aureus (GC 1131) (Staphylococcus sp.): 1 µg/mL (≈ 0.671 µM) | MIC Staphylococcus aureus (GC 3051) (Staphylococcus sp.; strain GC 3051): 2 µg/mL (≈ 1.34 µM) | MIC Staphylococcus aureus (GC 3053) (Staphylococcus sp.; strain GC 3053): 2 µg/mL (≈ 1.34 µM) | MIC Staphylococcus aureus (GC 4541) (Staphylococcus sp.; strain GC 4541): 2 µg/mL (≈ 1.34 µM) | MIC Staphylococcus aureus (GC 4542) (Staphylococcus sp.; strain GC 4542): 2 µg/mL (≈ 1.34 µM) | MIC Staphylococcus aureus (GC 4544) (Staphylococcus sp.; strain GC 4544): 1 µg/mL (≈ 0.671 µM) | MIC Staphylococcus aureus (GC 4545) (Staphylococcus sp.; strain GC 4545): 1 µg/mL (≈ 0.671 µM) | MIC Staphylococcus aureus-SMITH (GC 4543) (Staphylococcus sp.; strain GC 4543): 1 µg/mL (≈ 0.671 µM) | MIC Staphylococcus haemolyticus (GC 4546) (Staphylococcus sp.; strain GC 4546): 2 µg/mL (≈ 1.34 µM) | MIC Coagulase Negative Staphylococcus (GC 4547) (Staphylococcus sp.; strain GC 4547): 2 µg/mL (≈ 1.34 µM) | MIC Coagulase Negative Staphylococcus (GC 4548) (Staphylococcus sp.; strain GC 4548): 0.5 µg/mL (≈ 0.336 µM) | MIC Coagulase Negative Staphylococcus (GC 4549) (Staphylococcus sp.; strain GC 4549): 1 µg/mL (≈ 0.671 µM) | MIC Coagulase Negative Staphylococcus (GC 4551) (Staphylococcus sp.; strain GC 4551): 1 µg/mL (≈ 0.671 µM) | MIC Coagulase Negative Staphylococcus (GC 6257) (Staphylococcus sp.; strain GC 6257): 0.5 µg/mL (≈ 0.336 µM)
